Test results published in patent US20110097274A1, “Carbon-11 and fluorine-18 labeled radioligands for positron emission tomography (PET) imaging for the brain serotonin transporters” (priority 2002, published 2011).
Where “and” joins values, the source holds several entries; their conditions need not be identical. Identical values can stand only once.

Test system: SERT
Test: Baboon PET imaging: brain uptake, kinetic analysis and SERT parameters
Type: in vivo
Method: PET imaging protocol: PET experiments (n=20) were performed at Columbia University. Two adult male baboons (baboon A and B) were studied twice with each of the 5 radioligands (4 experiments per radioligand). All experiments took place within a 9-month period. Baboons A and B were 31 kg and 21 kg in weight at the beginning of the experimental period and 28 and 22 kg at the end, respectively. Test and retest experiments with the same radioligand were obtained on different days, with an average interval of 117±53 days.
Experiments were performed according to protocols approved by the Columbia-Presbyterian Medical Center Institutional Animal Care and Use Committee. Fasted animals were immobilized with ketamine (10 mg/kg i.m.), and anesthetized with 1.8% isoflurane via an endotracheal tube. Vital signs were monitored every 10 minutes and the temperature was kept constant at 37° C. with heated water blankets. An i.v. perfusion line was used for hydration and injection of radioligands and nonradioactive drugs. A catheter was inserted in a femoral artery for arterial blood sampling. Head was positioned at the center of the field of view as defined by imbedded laser lines. PET imaging was performed with the ECAT EXACT HR+PET scanner (Siemens/CTI, Knoxville, Tenn.). In 3D mode, this camera provides an in-plane resolution of 4.3 mm, 4.5 mm, 5.4 mm and 8.0 mm full width at half maximum (FWHM) at a distance of 0, 1, 10 and 20 cm from the center of the field of view, respectively (Brix et al., 1997). A 15 minute transmission scan was obtained prior to radioligand injection for attenuation correction. Activity was injected i.v. over 30 seconds. […] Emission data was collected in the 3D mode for 91 minutes as 21 successive frames of increasing duration (6*10 seconds, 2*1 minutes, 4*2 minutes, 2*5 minutes, and 7*10 minutes).
Image analysis: A Magnetic Resonance Image (MRI) of each baboon's brain was obtained for the purpose of identifying the regions of interest (ROI) (T1-weighted axial MRI sequence, acquired parallel to the anterior-posterior commissure, TR 34 msec, TE 5 msec, flip angle of 45 degrees, slice thickness is 1.5 mm, zero gap, matrix 1.5 mm×1 mm×1 mm voxels). The following regions were drawn on the MR images: cerebellum, midbrain, thalamus, striatum, hippocampus, temporal cortex, cingulate cortex and occipital cortex.
PET emission data were attenuation-corrected using the transmission scan, and frames were reconstructed using a Shepp filter (cutoff 0.5 cycles/projection rays). Reconstructed image files were then processed using the image analysis software MEDx (Sensor Systems, Inc., Sterling, Va.). An image was created by summing all the frames, and this summed image was used to define the registration parameters with the MR image, using between-modality automated image registration (AIR) algorithm (Woods et al., 1993). Registration parameters were then applied to the individual frames for registration to the MR data set. Regional boundaries were transferred to the individual registered PET frames, and time-activity curves were measured and decay-corrected. Right and left regions were averaged. For a given animal, the same regions were used for all radioligands.
Brain uptake: Total brain uptake was expressed as percentage of the injected dose per gram of tissue (% ID g^−1) in a region encompassing the entire brain. Regional peak time was defined as the mid-time of the frame associated with the highest activity value. To estimate the degree of wash-out from the brain captured during the scan interval (91 minutes), the decrease in activity from the peak frame to the last frame was calculated and expressed in percentage of the peak activity.
Kinetic analysis: Regional total distribution volumes (VT, mL g^−1) were derived with kinetic analysis of the regional time-activity curves, using the arterial plasma concentrations as input function. […]

[1] = BP = VT ROI − VT CER, baboons, mean ± SD of four experiments
[2] = Mean ± SD of four experiments in two baboons
[3] = baboon A, experiments of FIGS. 5-9 (FIG. 10)
[4] = baboons, mean ± SD of four experiments
[5] = last scan 90 minutes, baboons, mean ± SD of four experiments
[6] = one-tissue compartment model, baboons, mean ± SD of four experiments

CN([11CH3])Cc1ccccc1Sc1ccc(CF)cc1N [[^11C]AFM, [^11C]2-[2-(Dimethylaminomethyl)phenylthio]-5-fluoromethylphenylamine]
Binding potential Cingulate Cortex [1]: 8.5 ± 1.0 mL/g
Binding potential Hippocampus [1]: 20.9 ± 2.5 mL/g
Binding potential Midbrain [1]: 65.8 ± 11.7 mL/g
Binding potential Occipital Cortex [1]: 7.3 ± 1.3 mL/g
Binding potential Striatum [1]: 31.3 ± 6.5 mL/g
Binding potential Temporal Cortex [1]: 11.8 ± 0.9 mL/g
Binding potential Thalamus [1]: 71.3 ± 16.5 mL/g
Equilibrium specific to non-specific partition coefficient (V3″) Cingulate Cortex (Baboon A, single experiment): 0.30 and 0.26
Equilibrium specific to non-specific partition coefficient (V3″) Hippocampus (Baboon A, single experiment): 0.70 and 0.75
Equilibrium specific to non-specific partition coefficient (V3″) Midbrain (Baboon A, single experiment): 2.13 and 2.18
Equilibrium specific to non-specific partition coefficient (V3″) Occipital Cortex (Baboon A, single experiment): 0.29 and 0.30
Equilibrium specific to non-specific partition coefficient (V3″) Striatum (Baboon A, single experiment): 0.97 and 0.92
Equilibrium specific to non-specific partition coefficient (V3″) Temporal Cortex (Baboon A, single experiment): 0.38 and 0.46
Equilibrium specific to non-specific partition coefficient (V3″) Thalamus (Baboon A, single experiment): 2.10
Equilibrium specific to non-specific partition coefficient (V3″) Cingulate Cortex (Baboon B, single experiment): 0.30 and 0.25
Equilibrium specific to non-specific partition coefficient (V3″) Hippocampus (Baboon B, single experiment): 0.61 and 0.69
Equilibrium specific to non-specific partition coefficient (V3″) Midbrain (Baboon B, single experiment): 1.94 and 2.33
Equilibrium specific to non-specific partition coefficient (V3″) Occipital Cortex (Baboon B, single experiment): 0.18 and 0.20
Equilibrium specific to non-specific partition coefficient (V3″) Striatum (Baboon B, single experiment): 1.06 and 1.11
Equilibrium specific to non-specific partition coefficient (V3″) Temporal Cortex (Baboon B, single experiment): 0.35 and 0.37
Equilibrium specific to non-specific partition coefficient (V3″) Thalamus (Baboon B, single experiment): 2.46 and 2.58
Equilibrium specific to non-specific partition coefficient (V3″) Cingulate Cortex [2]: 0.28 ± 0.02
Equilibrium specific to non-specific partition coefficient (V3″) Hippocampus [2]: 0.69 ± 0.06
Equilibrium specific to non-specific partition coefficient (V3″) Midbrain [2]: 2.14 ± 0.16
Equilibrium specific to non-specific partition coefficient (V3″) Occipital Cortex [2]: 0.24 ± 0.06
Equilibrium specific to non-specific partition coefficient (V3″) Striatum [2]: 1.01 ± 0.08
Equilibrium specific to non-specific partition coefficient (V3″) Temporal Cortex [2]: 0.39 ± 0.05
Equilibrium specific to non-specific partition coefficient (V3″) Thalamus [2]: 2.31 ± 0.25
Thalamus to cerebellum ratio equal to true equilibrium ratio (V3″+1) [3]: 3.10
Time at which measured thalamus to cerebellum ratio equals the true equilibrium ratio (estimate of peak specific binding) [3]: 64 min
K1, average of all regions and all animals (baboons): 1.44 ± 0.40 mL/g/min
VT, average of all regions and all animals (baboons): 57.5 ± 27.5 mL/g
k2, average of all regions and all animals (baboons): 0.030 ± 0.015 min⁻¹
f2 (free fraction in the nonspecific distribution volume) (baboons, calculated from f1 and cerebellar VT): 0.32±0.04%
V3″ expressed in percentage of [^11C]McN 5652 V3″ (baboons, combining all regions): 193±35%
Mean regional peak uptake time (baboons, mean of all regions): 38 ± 19 min
Mean regional wash-out (% decrease between peak time and last scan) (baboons, mean of all regions): 32±26%
Cingulate Cortex to cerebellum activity ratio at 90 minutes [4]: 1.30 ± 0.09
Hippocampus to cerebellum activity ratio at 90 minutes [4]: 1.84 ± 0.40
Midbrain to cerebellum activity ratio at 90 minutes [4]: 3.48 ± 1.09
Occipital Cortex to cerebellum activity ratio at 90 minutes [4]: 1.26 ± 0.18
Regional uptake peak time Cerebellum [4]: 23 ± 11 min
Regional uptake peak time Cingulate Cortex [4]: 28 ± 11 min
Regional uptake peak time Hippocampus [4]: 39 ± 16 min
Regional uptake peak time Midbrain [4]: 56 ± 24 min
Regional uptake peak time Occipital Cortex [4]: 30 ± 14 min
Regional uptake peak time Striatum [4]: 44 ± 21 min
Regional uptake peak time Temporal Cortex [4]: 34 ± 14 min
Regional uptake peak time Thalamus [4]: 54 ± 22 min
Striatum to cerebellum activity ratio at 90 minutes [4]: 2.10 ± 0.24
Temporal Cortex to cerebellum activity ratio at 90 minutes [4]: 1.44 ± 0.20
Thalamus to cerebellum activity ratio at 90 minutes [4]: 3.51 ± 0.72
Total brain uptake at 45 min (baboons, region encompassing the entire brain): 0.016±0.002 % ID g^−1
In vivo affinity relative to [^11C]DASB (times higher) (from Bmax/KD ratios, assuming same number of binding sites): 3.3 times
Regional activity wash-out: % decrease from peak to last scan, Cerebellum [5]: 48 ± 28%
Regional activity wash-out: % decrease from peak to last scan, Cingulate Cortex [5]: 43 ± 27%
Regional activity wash-out: % decrease from peak to last scan, Hippocampus [5]: 26 ± 27%
Regional activity wash-out: % decrease from peak to last scan, Midbrain [5]: 16 ± 22%
Regional activity wash-out: % decrease from peak to last scan, Occipital Cortex [5]: 42 ± 27%
Regional activity wash-out: % decrease from peak to last scan, Striatum [5]: 29 ± 31%
Regional activity wash-out: % decrease from peak to last scan, Temporal Cortex [5]: 36 ± 29%
Regional activity wash-out: % decrease from peak to last scan, Thalamus [5]: 18 ± 25%
K1 Cerebellum [6]: 1.52 ± 0.49 mL/g/min
K1 Cingulate Cortex [6]: 1.48 ± 0.40 mL/g/min
K1 Hippocampus [6]: 1.15 ± 0.35 mL/g/min
K1 Midbrain [6]: 1.57 ± 0.41 mL/g/min
K1 Occipital Cortex [6]: 1.35 ± 0.37 mL/g/min
K1 Striatum [6]: 1.48 ± 0.48 mL/g/min
K1 Temporal Cortex [6]: 1.25 ± 0.34 mL/g/min
K1 Thalamus [6]: 1.68 ± 0.42 mL/g/min
K2 Cerebellum [6]: 0.051 ± 0.021 min⁻¹
K2 Cingulate Cortex [6]: 0.039 ± 0.012 min⁻¹
K2 Hippocampus [6]: 0.023 ± 0.008 min⁻¹
K2 Midbrain [6]: 0.017 ± 0.006 min⁻¹
K2 Occipital Cortex [6]: 0.036 ± 0.011 min⁻¹
K2 Striatum [6]: 0.025 ± 0.010 min⁻¹
K2 Temporal Cortex [6]: 0.030 ± 0.010 min⁻¹
K2 Thalamus [6]: 0.017 ± 0.006 min⁻¹
VT Cerebellum (VT CER, nonspecific distribution volume) [6]: 30.6 ± 3.9 mL/g
VT Cingulate Cortex [6]: 39.0 ± 4.7 mL/g
VT Hippocampus [6]: 51.5 ± 6.1 mL/g
VT Midbrain [6]: 96.3 ± 15.3 mL/g
VT Occipital Cortex [6]: 37.9 ± 3.6 mL/g
VT Striatum [6]: 61.9 ± 10.4 mL/g
VT Temporal Cortex [6]: 42.4 ± 4.5 mL/g
VT Thalamus [6]: 101.9 ± 20.4 mL/g
